{
  "source": "PubChem BioAssay (NCI)",
  "experiment_in_all_cases": "DTP human tumour cell line panel, 48 h",
  "key": {"[1]": {"system": "UACC-257 melanoma"}, "[2]": {"system": "DU-145 prostate"}, "[3]": {"system": "UO-31 renal"}, "[4]": {"system": "OVCAR-3 ovarian"}, "[5]": {"system": "CCRF-CEM leukemia"}, "[6]": {"system": "LOX IMVI melanoma"}, "[7]": {"system": "HT29 colon"}, "[8]": {"system": "NCI-H460 lung"}, "[9]": {"system": "A498 renal"}, "[10]": {"system": "TK-10 renal"}, "[11]": {"system": "MDA-MB-231 breast"}, "[12]": {"system": "HOP-92 NSCLC"}, "[13]": {"system": "OVCAR-8 ovarian"}, "[14]": {"system": "NCI-H226 lung"}, "[15]": {"system": "SW-620 colon"}, "[16]": {"system": "K-562 leukemia"}, "[17]": {"system": "MOLT-4 leukemia"}, "[18]": {"system": "RPMI-8226 leukemia"}, "[19]": {"system": "786-0 renal"}, "[20]": {"system": "CAKI-1 renal"}, "[21]": {"system": "HCT-116 colon"}, "[22]": {"system": "SF-539 CNS"}, "[23]": {"system": "SF-268 CNS"}, "[24]": {"system": "PC-3 prostate"}, "[25]": {"system": "SK-MEL-5 melanoma"}, "[26]": {"system": "MCF7 breast"}, "[27]": {"system": "A549 NSCLC"}, "[28]": {"system": "T-47D breast"}, "[29]": {"system": "HL-60(TB) leukemia"}},
  "note": "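How tested: cells in 96-well plates exposed to compound for 48 hours at five concentrations. GI50 marks 50% less growth. The concentration for full growth arrest is given as TGI.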",
  "data": [
    {"smiles": "COC(=O)C(=Cc1ccccc1[N+](=O)[O-])C(=O)OC", "values": [
      {"measurement": "GI50", "setting": "[1]", "result": 4.06, "unit": "µM"},
      {"measurement": "TGI", "setting": "[1]", "result": 17.3, "unit": "µM"},
      {"measurement": "GI50", "setting": "[2]", "result": 2.29, "unit": "µM"},
      {"measurement": "TGI", "setting": "[2]", "result": 6.61, "unit": "µM"},
      {"measurement": "GI50", "setting": "[3]", "result": 2.31, "unit": "µM"},
      {"measurement": "TGI", "setting": "[3]", "result": 9.8, "unit": "µM"},
      {"measurement": "GI50", "setting": "[4]", "result": 2.28, "unit": "µM"},
      {"measurement": "TGI", "setting": "[4]", "result": 5.67, "unit": "µM"},
      {"measurement": "GI50", "setting": "[5]", "result": 1.81, "unit": "µM"},
      {"measurement": "TGI", "setting": "[5]", "result": 5.16, "unit": "µM"},
      {"measurement": "GI50", "setting": "[6]", "result": 2.08, "unit": "µM"},
      {"measurement": "TGI", "setting": "[6]", "result": 5.88, "unit": "µM"},
      {"measurement": "GI50", "setting": "[7]", "result": 3.54, "unit": "µM"},
      {"measurement": "TGI", "setting": "[7]", "result": 14.4, "unit": "µM"},
      {"measurement": "GI50", "setting": "[8]", "result": 3.41, "unit": "µM"},
      {"measurement": "TGI", "setting": "[8]", "result": 13.7, "unit": "µM"},
      {"measurement": "GI50", "setting": "[9]", "result": 2.75, "unit": "µM"},
      {"measurement": "TGI", "setting": "[9]", "result": 8.23, "unit": "µM"},
      {"measurement": "GI50", "setting": "[10]", "result": 5.93, "unit": "µM"},
      {"measurement": "TGI", "setting": "[10]", "result": 18.1, "unit": "µM"},
      {"measurement": "GI50", "setting": "[11]", "result": 3.68, "unit": "µM"},
      {"measurement": "TGI", "setting": "[11]", "result": 13.5, "unit": "µM"},
      {"measurement": "GI50", "setting": "[12]", "result": 2.38, "unit": "µM"},
      {"measurement": "TGI", "setting": "[12]", "result": 7.4, "unit": "µM"},
      {"measurement": "GI50", "setting": "[13]", "result": 3.53, "unit": "µM"},
      {"measurement": "TGI", "setting": "[13]", "result": 40.8, "unit": "µM"},
      {"measurement": "GI50", "setting": "[14]", "result": 8.34, "unit": "µM"},
      {"measurement": "TGI", "setting": "[14]", "result": 24.8, "unit": "µM"},
      {"measurement": "GI50", "setting": "[15]", "result": 3.9, "unit": "µM"},
      {"measurement": "TGI", "setting": "[15]", "result": 12.7, "unit": "µM"},
      {"measurement": "GI50", "setting": "[16]", "result": 2.51, "unit": "µM"},
      {"measurement": "TGI", "setting": "[16]", "result": 9.48, "unit": "µM"},
      {"measurement": "GI50", "setting": "[17]", "result": 2.31, "unit": "µM"},
      {"measurement": "TGI", "setting": "[17]", "result": 7.21, "unit": "µM"},
      {"measurement": "GI50", "setting": "[18]", "result": 1.27, "unit": "µM"},
      {"measurement": "TGI", "setting": "[18]", "result": 3.63, "unit": "µM"},
      {"measurement": "GI50", "setting": "[19]", "result": 4.24, "unit": "µM"},
      {"measurement": "TGI", "setting": "[19]", "result": 14.2, "unit": "µM"},
      {"measurement": "GI50", "setting": "[20]", "result": 3.61, "unit": "µM"},
      {"measurement": "TGI", "setting": "[20]", "result": 14.1, "unit": "µM"},
      {"measurement": "GI50", "setting": "[21]", "result": 2.69, "unit": "µM"},
      {"measurement": "TGI", "setting": "[21]", "result": 9.55, "unit": "µM"},
      {"measurement": "GI50", "setting": "[22]", "result": 2.63, "unit": "µM"},
      {"measurement": "TGI", "setting": "[22]", "result": 7.5, "unit": "µM"},
      {"measurement": "GI50", "setting": "[23]", "result": 3.06, "unit": "µM"},
      {"measurement": "TGI", "setting": "[23]", "result": 12.7, "unit": "µM"},
      {"measurement": "GI50", "setting": "[24]", "result": 4.63, "unit": "µM"},
      {"measurement": "TGI", "setting": "[24]", "result": 21.1, "unit": "µM"},
      {"measurement": "GI50", "setting": "[25]", "result": 2.55, "unit": "µM"},
      {"measurement": "TGI", "setting": "[25]", "result": 9.2, "unit": "µM"},
      {"measurement": "GI50", "setting": "[26]", "result": 2.35, "unit": "µM"},
      {"measurement": "TGI", "setting": "[26]", "result": 11.2, "unit": "µM"},
      {"measurement": "GI50", "setting": "[27]", "result": 3.98, "unit": "µM"},
      {"measurement": "TGI", "setting": "[27]", "result": 21.7, "unit": "µM"},
      {"measurement": "GI50", "setting": "[28]", "result": 2.12, "unit": "µM"},
      {"measurement": "TGI", "setting": "[28]", "result": 11, "unit": "µM"},
      {"measurement": "GI50", "setting": "[29]", "result": 2.78, "unit": "µM"},
      {"measurement": "TGI", "setting": "[29]", "result": "> 100", "unit": "µM"}
    ]}
  ]
}
